Experiment [1] deals with pNL4-3 WT. In words: Antiviral activity against pNL4-3 WT strain in MT4 cells (p24 estimation). The experiment is classed as cell-based, HIV-1. As to conditions: Human immunodeficiency virus 1, MT4, 96 h, read-out: pNL4-3 WT IC50. Here is the method:
(§1) MT4 cells were Transfected with HIV-1 Plasmid (pNL4-3-WT & V7A) (Cells were incubating with required number of TCID50 of HIV-1 for 1.5 h at 37° C.). After infection, the infected cells were plated at the concentration of 3×10^4 cells per well in 96 well plate. Test compound was added to the test plate in defined format with the final concentration of DMSO is not more than 1%. Incubation was carried out in CO2 incubator for 4 days for viral infection. At the end of incubation period an aliquot from each well was taken for p24 estimation. p24 estimation was carried out using Advance biosciences kit as per the procedure detailed by supplier.

Experiment [2] has as its system HIV-1 strain 92HT599. The experiment is described as follows: Antiviral activity against HIV-1 strain 92HT599 in MT2 cells (p24 estimation). The experiment is classed as cell-based. Here is the method: MT2 cells were infected with HIV-1 strain 92HT599 (10 TCID 50/30000 cells). The infected cells were plated at the concentration of ˜30,000 cells per well in 96 well plate. Test compound was added to the micro plate in defined format with the final concentration of DMSO (vehicle) is not more than 1%. Incubation was carried out in CO2 incubator for ˜96 hours for viral infection. At the end of incubation period an aliquot from each well was taken for p24 estimation. The quantitation of p24 is an index for antiviral activity of the compound. Percent inhibition was calculated with reference to control values (vehicle controls). p24 estimation was carried out using Advance biosciences kit as per the procedure detailed by supplier.
The IC50 (nM) values are set forth in below Table-1.

For experiment [3], the system named is pNL4-3 V7A. In words: Antiviral activity against pNL4-3 V7A strain in MT4 cells (p24 estimation). The experiment is classed as cell-based, HIV-1. As to conditions: Human immunodeficiency virus 1, MT4, 96 h, read-out: pNL4-3 V7A IC50. The protocol: as §1
The mark [4] stands for this setting: Human immunodeficiency virus 1, HIV-1 strain 92HT599, MT2 cells, ~96 hours, p24, read-out: IC50.

Where two headings read alike, the source gives them in different places.

Take `CC1([C@@H]2CC[C@]3(NCC(C)(C)N4CCS(=O)(=O)CC4)CC[C@]4(C)[C@H](CC[C@@H]5[C@@]6(C)CC[C@H](OC(=O)[C@H]7C[C@@H](C(=O)O)C7(C)C)C(C)(C)[C@@H]6CC[C@]54C)[C@@H]23)CC1` [Example 1, (1R,3S)-3-((((1R,3aS,5aR,5bR,7aR,9S,11aR,11bR,13aR,13bR)-3a-((2-(1,1-dioxidothiomorpholino)-2-methylpropyl)amino)-5a,5b,8,8,11a-pentamethyl-1-(1-methylcyclopropyl)icosahydro-1H-cyclopentachrysen-9-yl)oxy)carbonyl)-2,2-dimethyl cyclobutane-1-carboxylic acid]: the IC50 in experiment [1] is over 50 nM; in experiment [2] (setting [4]), over 20 nM; in experiment [3] it was over 100 nM.
`C[C@@H](CN[C@]12CC[C@@H](C3(C)CC3)[C@@H]1[C@H]1CC[C@@H]3[C@@]4(C)CC[C@H](OC(=O)[C@H]5C[C@@H](C(=O)O)C5(C)C)C(C)(C)[C@@H]4CC[C@@]3(C)[C@]1(C)CC2)N1CCS(=O)(=O)CC1` [Example 2, (1R,3S)-3-((((1R,3aS,5aR,5bR,7aR,9S,11aR,11bR,13aR,13bR)-3a-(((S)-2-(1,1-dioxidothiomorpholino)propyl)amino)-5a,5b,8,8,11a-pentamethyl-1-(1-methylcyclopropyl)icosahydro-1H-cyclopentachrysen-9-yl)oxy)carbonyl)-2,2-dimethyl cyclobutane-1-carboxylic acid]: the IC50 in experiment [1] is under 10 nM; in experiment [2] (setting [4]) it was under 10 nM; in experiment [3], 1 to 50 nM.
In the case of `CC(C)[C@H](CN[C@]12CC[C@@H](C3(C)CC3)[C@@H]1[C@H]1CC[C@@H]3[C@@]4(C)CC[C@H](OC(=O)[C@H]5C[C@@H](C(=O)O)C5(C)C)C(C)(C)[C@@H]4CC[C@@]3(C)[C@]1(C)CC2)N1CCS(=O)(=O)CC1` [Example 3, (1R,3S)-3-((((1R,3aS,5aR,5bR,7aR,9S,11aR,11bR,13aR,13bR)-3a-(((R)-2-(1,1-dioxidothiomorpholino)-3-methylbutyl)amino)-5a,5b,8,8,11a-pentamethyl-1-(1-methylcyclopropyl)icosahydro-1H-cyclopenta[a]chrysen-9-yl)oxy)carbonyl)-2,2-dimethyl cyclobutane-1-carboxylic acid], the IC50 in experiment [1] was over 50 nM; in experiment [2] (setting [4]), over 20 nM; in experiment [3] it was over 100 nM.
Consider `CC1([C@@H]2CC[C@]3(NC[C@H](CO[Si](C)(C)C(C)(C)C)N4CCS(=O)(=O)CC4)CC[C@]4(C)[C@H](CC[C@@H]5[C@@]6(C)CC[C@H](OC(=O)[C@H]7C[C@@H](C(=O)O)C7(C)C)C(C)(C)[C@@H]6CC[C@]54C)[C@@H]23)CC1` [Example 4, (1R,3S)-3-((((1R,3aS,5aR,5bR,7aR,9S,11aR,11bR,13aR,13bR)-3a-(((R)-3-((tert-butyldimethylsilyl)oxy)-2-(1,1-dioxidothiomorpholino)propyl)amino)-5a,5b, 8,8,11a-pentamethyl-1-(1-methylcyclopropyl)icosahydro-1H-cyclopenta[a]chrysen-9-yl)oxy)carbonyl)-2,2-dimethylcyclobutane-1-carboxylic acid], for which the IC50 is over 50 nM in experiment [1]; 10 to 20 nM in experiment [2] (Human immunodeficiency virus 1, MT2, 96 h); over 100 nM in experiment [3].
For `CC1([C@@H]2CC[C@]3(NC[C@H](CO)N4CCS(=O)(=O)CC4)CC[C@]4(C)[C@H](CC[C@@H]5[C@@]6(C)CC[C@H](OC(=O)[C@H]7C[C@@H](C(=O)O)C7(C)C)C(C)(C)[C@@H]6CC[C@]54C)[C@@H]23)CC1` [Example 5, (1R,3S)-3-((((1R,3aS,5aR,5bR,7aR,9S,11aR,11bR,13aR,13bR)-3a-(((R)-2-(1,1-dioxidothiomorpholino)-3-hydroxypropyl)amino)-5a,5b,8,8,11a-pentamethyl-1-(1-methylcyclopropyl)icosahydro-1H-cyclopenta[a]chrysen-9-yl)oxy)carbonyl)-2,2-dimethylcyclobutane-1-carboxylic acid], the IC50 in experiment [1] is under 10 nM; in experiment [2] (setting [4]), under 10 nM; in experiment [3], 1 to 50 nM.
On to `CC(C)[C@@H](CN[C@]12CC[C@@H](C3(C)CC3)[C@@H]1[C@H]1CC[C@@H]3[C@@]4(C)CC[C@H](OC(=O)[C@H]5C[C@@H](C(=O)O)C5(C)C)C(C)(C)[C@@H]4CC[C@@]3(C)[C@]1(C)CC2)N1CCS(=O)(=O)CC1` [Example 6, (1R,3S)-3-((((1R,3aS,5aR,5bR,7aR,9S,11aR,11bR,13aR,13bR)-3a-(((S)-2-(1,1-dioxidothiomorpholino)-3-methylbutyl)amino)-5a,5b,8,8,11a-pentamethyl-1-(1-methylcyclopropyl)icosahydro-1H-cyclopentachrysen-9-yl)oxy)carbonyl)-2,2-dimethylcyclobutane-1-carboxylic acid], for which the IC50 is 10 to 50 nM in experiment [1], under 10 nM in experiment [2] (setting [4]) and 1 to 50 nM in experiment [3].
For `C[C@@H](O)[C@@H](CN[C@]12CC[C@@H](C3(C)CC3)[C@@H]1[C@H]1CC[C@@H]3[C@@]4(C)CC[C@H](OC(=O)[C@H]5C[C@@H](C(=O)O)C5(C)C)C(C)(C)[C@@H]4CC[C@@]3(C)[C@]1(C)CC2)N1CCS(=O)(=O)CC1` [Example 7, (1R,3S)-3-((((1R,3aS,5aR,5bR,7aR,9S,11aR,11bR,13aR,13bR)-3a-(((2R,3R)-2-(1,1-dioxidothiomorpholino)-3-hydroxybutyl)amino)-5a,5b,8,8,11a-pentamethyl-1-(1-methylcyclopropyl)icosahydro-1H-cyclopentachrysen-9-yl)oxy)carbonyl)-2,2-dimethylcyclobutane-1-carboxylic acid], in that order: under 10 nM, under 10 nM and 1 to 50 nM.
Taken in the same sequence, the figures for `CC1([C@@H]2CC[C@]3(NC[C@@H](CO)N4CCS(=O)(=O)CC4)CC[C@]4(C)[C@H](CC[C@@H]5[C@@]6(C)CC[C@H](OC(=O)[C@H]7C[C@@H](C(=O)O)C7(C)C)C(C)(C)[C@@H]6CC[C@]54C)[C@@H]23)CC1` [Example 8, (1R,3S)-3-((((1R,3aS,5aR,5bR,7aR,9S,11aR,11bR,13aR,13bR)-3a-(((S)-2-(1,1-dioxidothiomorpholino)-3-hydroxypropyl)amino)-5a,5b,8,8,11a-pentamethyl-1-(1-methylcyclopropyl)icosahydro-1H-cyclopenta[a]chrysen-9-yl)oxy)carbonyl)-2,2-dimethylcyclobutane-1-carboxylic acid] were under 10 nM, under 10 nM and 1 to 50 nM.
Take `CC1([C@@H]2CC[C@]3(NC[C@@H](CF)N4CCS(=O)(=O)CC4)CC[C@]4(C)[C@H](CC[C@@H]5[C@@]6(C)CC[C@H](OC(=O)[C@H]7C[C@@H](C(=O)O)C7(C)C)C(C)(C)[C@@H]6CC[C@]54C)[C@@H]23)CC1` [Example 9, (1R,3S)-3-((((1R,3aS,5aR,5bR,7aR,9S,11aR,11bR,13aR,13bR)-3a-(((S)-2-(1,1-dioxidothiomorpholino)-3-fluoropropyl)amino)-5a,5b,8,8,11a-pentamethyl-1-(1-methylcyclopropyl)icosahydro-1H-cyclopentachrysen-9-yl)oxy)carbonyl)-2,2-dimethyl cyclobutane-1-carboxylic acid]: the IC50 in experiment [1] was 10 to 50 nM; in experiment [2] (setting [4]), under 10 nM; in experiment [3], 50 to 100 nM.
Taken in the same sequence, the figures for `CC1([C@@H]2CC[C@]3(NC[C@H](CF)N4CCS(=O)(=O)CC4)CC[C@]4(C)[C@H](CC[C@@H]5[C@@]6(C)CC[C@H](OC(=O)[C@H]7C[C@@H](C(=O)O)C7(C)C)C(C)(C)[C@@H]6CC[C@]54C)[C@@H]23)CC1` [Example 10, (1R,3S)-3-((((1R,3aS,5aR,5bR,7aR,9S,11aR,11bR,13aR,13bR)-3a-(((R)-2-(1,1-dioxidothiomorpholino)-3-fluoropropyl)amino)-5a,5b,8,8,11a-pentamethyl-1-(1-methylcyclopropyl)icosahydro-1H-cyclopenta[a]chrysen-9-yl)oxy)carbonyl)-2,2-dimethyl cyclobutane-1-carboxylic acid] were under 10 nM, under 10 nM and 1 to 50 nM.
For `CC(C)S(=O)(=O)N1CCN([C@@H](C)CN[C@]23CC[C@@H](C4(C)CC4)[C@@H]2[C@H]2CC[C@@H]4[C@@]5(C)CC[C@H](OC(=O)[C@H]6C[C@@H](C(=O)O)C6(C)C)C(C)(C)[C@@H]5CC[C@@]4(C)[C@]2(C)CC3)CC1` [Example 11, (1R,3S)-3-((((1R,3aS,5aR,5bR,7aR,9S,11aR,11bR,13aR,13bR)-3a-(((S)-2-(4-(isopropylsulfonyl)piperazin-1-yl)propyl)amino)-5a,5b,8,8,11a-pentamethyl-1-(1-methylcyclopropyl)icosahydro-1H-cyclopenta[a]chrysen-9-yl)oxy)carbonyl)-2,2-dimethyl cyclobutane-1-carboxylic acid], the figures for the IC50 in experiment [1], in experiment [2] (setting [4]) and in experiment [3] were under 10 nM, under 10 nM and 1 to 50 nM, respectively.
